Assay results from PubChem BioAssay (NCI).
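The compound was tested at five concentrations on cells cultured in 96-well plates, with a 48-hour exposure period. GI50 = concentration required for 50% inhibition of growth. At the TGI there is no net growth.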

Experiments:
Assay in all cases: NCI-60 cell line screen, 48 h
UACC-62 melanoma = system: UACC-62 melanoma
OVCAR-5 ovarian = system: OVCAR-5 ovarian
NCI-H23 lung = system: NCI-H23 lung
T-47D breast = system: T-47D breast
SF-268 CNS = system: SF-268 CNS
HOP-62 NSCLC = system: HOP-62 NSCLC
HCC-2998 colon = system: HCC-2998 colon
HT29 colon = system: HT29 colon
786-0 renal = system: 786-0 renal
CCRF-CEM leukemia = system: CCRF-CEM leukemia
SK-MEL-2 melanoma = system: SK-MEL-2 melanoma
OVCAR-3 ovarian = system: OVCAR-3 ovarian
DU-145 prostate = system: DU-145 prostate
SK-MEL-5 melanoma = system: SK-MEL-5 melanoma
OVCAR-4 ovarian = system: OVCAR-4 ovarian
SK-MEL-28 melanoma = system: SK-MEL-28 melanoma
TK-10 renal = system: TK-10 renal
MCF7 breast = system: MCF7 breast
SNB-19 CNS = system: SNB-19 CNS
MOLT-4 leukemia = system: MOLT-4 leukemia
LOX IMVI melanoma = system: LOX IMVI melanoma
MDA-MB-231 breast = system: MDA-MB-231 breast
IGROV1 ovarian = system: IGROV1 ovarian
RXF 393 renal = system: RXF 393 renal
SF-539 CNS = system: SF-539 CNS
ACHN renal = system: ACHN renal
SNB-75 CNS = system: SNB-75 CNS
NCI-H522 lung = system: NCI-H522 lung
HCT-15 colon = system: HCT-15 colon
U251 CNS = system: U251 CNS
SR leukemia = system: SR leukemia
SF-295 CNS = system: SF-295 CNS
MDA-MB-435 = system: MDA-MB-435
SN12C renal = system: SN12C renal
K-562 leukemia = system: K-562 leukemia
UO-31 renal = system: UO-31 renal
MALME-3M melanoma = system: MALME-3M melanoma
PC-3 prostate = system: PC-3 prostate
RPMI-8226 leukemia = system: RPMI-8226 leukemia
NCI-H226 lung = system: NCI-H226 lung
HL-60(TB) leukemia = system: HL-60(TB) leukemia
KM12 colon = system: KM12 colon
HOP-92 NSCLC = system: HOP-92 NSCLC
UACC-257 melanoma = system: UACC-257 melanoma
OVCAR-8 ovarian = system: OVCAR-8 ovarian
CAKI-1 renal = system: CAKI-1 renal
A549 NSCLC = system: A549 NSCLC
NCI/ADR-RES ovarian = system: NCI/ADR-RES ovarian
COLO 205 colon = system: COLO 205 colon
HCT-116 colon = system: HCT-116 colon
M14 melanoma = system: M14 melanoma
EKVX NSCLC = system: EKVX NSCLC
SK-OV-3 ovarian = system: SK-OV-3 ovarian

SMILES: ICCC(c1ccccc1)(c1ccccc1)c1ccccc1
- GI50 (UACC-62 melanoma): 2.46 µM
- TGI (UACC-62 melanoma): 5.74 µM
- GI50 (OVCAR-5 ovarian): 13.4 µM
- TGI (OVCAR-5 ovarian): 27.1 µM
- GI50 (NCI-H23 lung): 13.4 µM
- TGI (NCI-H23 lung): 31 µM
- GI50 (T-47D breast): 14 µM
- TGI (T-47D breast): 34.1 µM
- GI50 (SF-268 CNS): 4.4 µM
- TGI (SF-268 CNS): 16.8 µM
- GI50 (HOP-62 NSCLC): 11.6 µM
- TGI (HOP-62 NSCLC): 24 µM
- GI50 (HCC-2998 colon): 8.41 µM
- TGI (HCC-2998 colon): 27.6 µM
- GI50 (HT29 colon): 2.34 µM
- TGI (HT29 colon): 9.07 µM
- GI50 (786-0 renal): 3.75 µM
- TGI (786-0 renal): 14.1 µM
- GI50 (CCRF-CEM leukemia): 3.56 µM
- TGI (CCRF-CEM leukemia): 16.3 µM
- GI50 (SK-MEL-2 melanoma): 4.18 µM
- TGI (SK-MEL-2 melanoma): 13.7 µM
- GI50 (OVCAR-3 ovarian): 3.85 µM
- TGI (OVCAR-3 ovarian): 15 µM
- GI50 (DU-145 prostate): 10.1 µM
- TGI (DU-145 prostate): 21.6 µM
- GI50 (SK-MEL-5 melanoma): 3.23 µM
- TGI (SK-MEL-5 melanoma): 11.2 µM
- GI50 (OVCAR-4 ovarian): 11.6 µM
- TGI (OVCAR-4 ovarian): 30.8 µM
- GI50 (SK-MEL-28 melanoma): 3.4 µM
- TGI (SK-MEL-28 melanoma): 12.5 µM
- GI50 (TK-10 renal): 14 µM
- TGI (TK-10 renal): 30.7 µM
- GI50 (MCF7 breast): 10.6 µM
- TGI (MCF7 breast): 26.7 µM
- GI50 (SNB-19 CNS): 14.4 µM
- TGI (SNB-19 CNS): 31.1 µM
- GI50 (MOLT-4 leukemia): 2.57 µM
- TGI (MOLT-4 leukemia): 8.97 µM
- GI50 (LOX IMVI melanoma): 4.16 µM
- TGI (LOX IMVI melanoma): 19.2 µM
- GI50 (MDA-MB-231 breast): 4.41 µM
- TGI (MDA-MB-231 breast): 19.8 µM
- GI50 (IGROV1 ovarian): 4.17 µM
- TGI (IGROV1 ovarian): 16.6 µM
- GI50 (RXF 393 renal): 8.9 µM
- TGI (RXF 393 renal): 22.8 µM
- GI50 (SF-539 CNS): 3.61 µM
- TGI (SF-539 CNS): 16.1 µM
- GI50 (ACHN renal): 12 µM
- TGI (ACHN renal): 24.8 µM
- GI50 (SNB-75 CNS): 1.7 µM
- TGI (SNB-75 CNS): 13 µM
- GI50 (NCI-H522 lung): 8.35 µM
- TGI (NCI-H522 lung): 22.7 µM
- GI50 (HCT-15 colon): 3.56 µM
- TGI (HCT-15 colon): 15.5 µM
- GI50 (U251 CNS): 3.48 µM
- TGI (U251 CNS): 11.3 µM
- GI50 (SR leukemia): 1.93 µM
- TGI (SR leukemia): 5 µM
- GI50 (SF-295 CNS): 2.02 µM
- TGI (SF-295 CNS): 5.07 µM
- GI50 (MDA-MB-435): 2.14 µM
- TGI (MDA-MB-435): 6.72 µM
- GI50 (SN12C renal): 12.2 µM
- TGI (SN12C renal): 27.2 µM
- GI50 (K-562 leukemia): 1.67 µM
- TGI (K-562 leukemia): 4.93 µM
- GI50 (UO-31 renal): 1.72 µM
- TGI (UO-31 renal): 9.87 µM
- GI50 (MALME-3M melanoma): 1.9 µM
- TGI (MALME-3M melanoma): 3.6 µM
- GI50 (PC-3 prostate): 4.32 µM
- TGI (PC-3 prostate): 19.4 µM
- GI50 (RPMI-8226 leukemia): 3.72 µM
- TGI (RPMI-8226 leukemia): 17.1 µM
- GI50 (NCI-H226 lung): 13.7 µM
- TGI (NCI-H226 lung): 27.3 µM
- GI50 (HL-60(TB) leukemia): 1.72 µM
- TGI (HL-60(TB) leukemia): 3.88 µM
- GI50 (KM12 colon): 4.45 µM
- TGI (KM12 colon): 15.4 µM
- GI50 (HOP-92 NSCLC): 2.7 µM
- TGI (HOP-92 NSCLC): 18.2 µM
- GI50 (UACC-257 melanoma): 1.7 µM
- TGI (UACC-257 melanoma): 3.35 µM
- GI50 (OVCAR-8 ovarian): 11.4 µM
- TGI (OVCAR-8 ovarian): 25.5 µM
- GI50 (CAKI-1 renal): 3.83 µM
- TGI (CAKI-1 renal): 17.1 µM
- GI50 (A549 NSCLC): 5.92 µM
- TGI (A549 NSCLC): 19.6 µM
- GI50 (NCI/ADR-RES ovarian): 11.1 µM
- TGI (NCI/ADR-RES ovarian): 29.5 µM
- GI50 (COLO 205 colon): 2.02 µM
- TGI (COLO 205 colon): 3.85 µM
- GI50 (HCT-116 colon): 2.55 µM
- TGI (HCT-116 colon): 13.5 µM
- GI50 (M14 melanoma): 1.92 µM
- TGI (M14 melanoma): 3.72 µM
- GI50 (EKVX NSCLC): 6.96 µM
- TGI (EKVX NSCLC): 23.2 µM
- GI50 (SK-OV-3 ovarian): 14.7 µM
- TGI (SK-OV-3 ovarian): 27.8 µM
